From ChEMBL document CHEMBL1157539, “Thousands of chemical starting points for antimalarial lead identification” (Nature, 2010)

The compounds below were run on Plasmodium falciparum (assay: GSK_TCMDC: Inhibition of Plasmodium falciparum 3D7 in whole erythrocytes, using parasite LDH activity as an index of growth.). Conditions: not given.
Assay type: functional, organism-based

Compound `COC(=O)/C=C/c1ccc(CC(C)NCC(O)c2cccc(C(F)(F)F)c2)cc1` (stereo unspecified) has an XC50 of 775 nM.

Same assay, conditions: Plasmodium falciparum, 3D7

First: Cc1cccc(Nc2nc(NCCCCN)nc3cc[nH]c(=O)c23)c1
Second: Cc1ccc2[nH]c(/C=C/c3cccc4cc[nH]c34)nc2c1
The XC50 of the first is 1.6-fold lower: 733 nM for the first, 1180 nM for the second.

`CCOc1ccc(CCC(=O)O)cc1OCC` and `CCOc1ccc(-c2nonc2NC(=O)c2cccs2)cc1OCC` are within 1.5-fold of each other in XC50: 1030 nM for the first, 756 nM for the second.

`Cc1ccc(C)c(S(=O)(=O)NCC2CCN(Cc3ccc(O)cc3)CC2)c1` and `Cc1c(Cl)cccc1S(=O)(=O)Nc1ccc(CCN2CCC(N)CC2)cc1` are within 1.5-fold of each other in XC50: 978 nM for the first, 1460 nM for the second.

`CN1CCN(Cc2cccc(-c3cc4nccc(Nc5ccc(Oc6ccccc6)cc5)c4cc3Cl)c2)CC1` and `c1ccc(Oc2ccc(Nc3ccnc(Nc4ccc(OCCN5CCCCC5)cc4)n3)cc2)cc1` are within 1.5-fold of each other in XC50: 728 nM for the first, 604 nM for the second.

`CS(=O)(=O)NCCCNCc1ccc(-c2ccc(-c3nc4cc(F)ccc4[nH]3)s2)cc1` and `CS(=O)(=O)NCCCNCc1ccc(-c2cccc(-c3nc4cc(F)ccc4[nH]3)c2)cc1` are within 1.5-fold of each other in XC50: 811 nM for the first, 804 nM for the second.

Going from `Cc1nc2ccccc2c(=O)n1NCc1ccc(Cl)c(Cl)c1` to `Oc1cc(NCc2ccccc2NCc2ccc(Cl)c(Cl)c2)nc2ccccc12`, the XC50 rises from 146 nM to 842 nM (5.8-fold).

Compared with `O=C(NCCCCCN1CCC(c2c[nH]c3ccccc23)CC1)Nc1cccc(Br)c1`, `Cc1ccc(C2CCN(CCCCNC(=O)c3ccc(-c4ccc(C#N)cc4)cc3)CC2)c(O)c1` is 3.8-fold lower in XC50: 1110 nM for the first, 292 nM for the second.

First: Cc1cc(NC(=O)Nc2ccc(I)c(OCCN(C)C)c2)ccc1Br
Second: Cc1cccc2nc(-c3cccc(-c4ccc(NC(=O)Nc5cccc(C#N)c5)cc4)c3)[nH]c12
The XC50 of the first is 3.3-fold higher: 625 nM for the first, 187 nM for the second.

`COc1ccc(CN(C)C(=O)CCNS(=O)(=O)c2ccc3c(c2)OCCCO3)cc1F` and `COc1ccc(CCN(C)CCCN2CCC(NC(=O)c3cccc4c(=O)c5ccccc5[nH]c34)CC2)cc1OC` are within 1.5-fold of each other in XC50: 656 nM for the first, 695 nM for the second.

Compared with `Nc1cccc(CNCc2cccc(-c3ccc(-c4nc5ccccc5[nH]4)s3)c2)c1`, `O=C1CCCN1CCCNCc1ccc(-c2cccc(-c3nc4ccccc4[nH]3)c2)cc1` is 1.7-fold higher in XC50: 604 nM for the first, 1020 nM for the second.

Going from `CC(CN1CCN(C)CC1)C(=O)Nc1ccc(-c2ccc(-c3nc4ccccc4[nH]3)s2)cc1` (stereo unspecified) to `Cc1cccc2nc(-c3ccc(-c4cccc(CNC5CCN(C)CC5)c4)s3)[nH]c12`, the XC50 falls from 638 nM to 182 nM (3.5-fold).

`CC(=O)N[C@H](C(=O)Nc1ccc(-c2cccc(-c3nc4cccc(C)c4[nH]3)c2)cc1)C(C)C` and `Cc1cccc2nc(-c3ccc(-c4ccc(NC(=O)Nc5ccc(Cl)c(Cl)c5)cc4)cc3)[nH]c12` are within 1.5-fold of each other in XC50: 1090 nM for the first, 826 nM for the second.

`O=C1C2C3SC(c4c3ccc3ccccc43)C2C(=O)N1c1ccccc1` (stereo unspecified) and `CCN(CC)CCCC(C)Nc1c2ccccc2nc2c1ccc1ccccc12` (stereo unspecified) are within 1.5-fold of each other in XC50: 770 nM for the first, 1090 nM for the second.

Compared with `CN1CCC(C(=O)N(Cc2ccc(-c3ccc(CNCCc4ccc(S(C)(=O)=O)cc4)cn3)cc2)C2Cc3ccccc3C2)CC1`, `CCN(CC)CCN(Cc1ccc(-c2ccc(C#N)cc2)cc1)C(=O)Cn1c(CCc2cccc(F)c2F)nc(=O)c2ccccc21` is 110-fold lower in XC50: 665 nM for the first, 5.97 nM for the second.

First: c1cn(CCCNc2ncc(-c3ccsc3)c(-c3nccs3)n2)cn1
Second: c1ccn2c(-c3ncnc(NCc4ccc5c(c4)CCO5)n3)cnc2c1
The XC50 of the first is 1.8-fold lower: 646 nM for the first, 1190 nM for the second.

`CCCc1cc(NC2CCN(C)CC2)nc(Nc2ccc(F)cc2)n1` and `CC1(C)[C@H]2CC[C@@H](CNc3nc(NCCc4c[nH]cn4)nc(Nc4ccc(Oc5ccccc5)cc4)n3)[C@@H]1C2` are within 1.5-fold of each other in XC50: 801 nM for the first, 672 nM for the second.

First: Cn1c2ccccc2c2c3ccccc3c(CNC(CO)(CO)CO)cc21
Second: COc1cc(CNCCCCCCNCc2cc(OC)c(OC)c3ccccc23)c2ccccc2c1OC
The XC50 of the first is 2.2-fold higher: 518 nM for the first, 235 nM for the second.

`CCOc1cc2c(cc1OCC)C(c1cc(OC)c(O)cc1Cl)NCC2` (stereo unspecified) and `COc1cc(Nc2ncnc3cc(OC)c(OC)cc23)cc([N+](=O)[O-])c1` are within 1.5-fold of each other in XC50: 748 nM for the first, 810 nM for the second.

First: COc1c(C2CCN(CCCCNC(=O)c3cc(-c4ccc(Cl)cc4)sc3C)CC2)ccc2c1CCCC2
Second: O=C(/C=C/c1ccc(Cl)c(Cl)c1)NCCCCCN1CCC(NC(=O)Nc2ccc(Cl)cc2F)CC1
The XC50 of the first is 2-fold higher: 629 nM for the first, 313 nM for the second.

First: COC(C(=O)OCCC1CCCN1C)(c1ccccc1)C1CCCCC1 (stereo unspecified)
Second: N=C(NCCCCC1CCCCC1)c1cccc(C(=N)NCCCCC2CCCCC2)n1
The XC50 of the first is 1.8-fold higher: 711 nM for the first, 395 nM for the second.

`NCC1CCCN1Cc1cccc(-c2cccc(-c3nc4cc(F)ccc4[nH]3)c2)c1` (stereo unspecified) and `Fc1ccc2[nH]c(-c3ccccc3)nc2c1CN1CCC(N2CCCC2)CC1` are within 1.5-fold of each other in XC50: 813 nM for the first, 717 nM for the second.

Going from `C/C=C1/CN2CC[C@H]1C[C@H]2[C@H](O)c1ccnc2ccc(O)cc12` to `Oc1ccc2nc(N3CCNCC3)nc(NCCCc3ccccc3)c2c1`, the XC50 rises from 491 nM to 1370 nM (2.8-fold).

`CO/C(=C/C=C/c1cc2cc(Cl)c(Cl)cc2[nH]1)C(=O)NC1CC(C)(C)N(C)C(C)(C)C1` and `CN(C)C(=S)N/N=C1/C(=O)Nc2ccc(OC(F)(F)F)cc21` are within 1.5-fold of each other in XC50: 783 nM for the first, 1020 nM for the second.

`CCCC(=O)NC(c1cccs1)c1cc(Cl)c2cccnc2c1O` (stereo unspecified) and `Oc1c(C(Nc2ccccn2)c2ccco2)cc(Cl)c2cccnc12` (stereo unspecified) are within 1.5-fold of each other in XC50: 848 nM for the first, 1010 nM for the second.

`Cc1cc(OCc2ccccc2)c(OCc2ccccc2)cc1C(O)CN(C)Cc1ccccc1` (stereo unspecified) and `OC(CNCc1ccccc1Oc1ccccc1)c1cccc(C(F)(F)F)c1` (stereo unspecified) are within 1.5-fold of each other in XC50: 809 nM for the first, 713 nM for the second.

Compared with `Cc1c(C(=O)NCc2ccncc2)sc2nc(-c3cccc([N+](=O)[O-])c3)cn12`, `Cc1cccc2c(C(=O)NC3CCN(Cc4ccccc4)CC3)cc(-c3cccnc3)nc12` is 1.5-fold higher in XC50: 913 nM for the first, 1380 nM for the second.

First: CC(=O)c1ccc(Nc2c(C(N)=O)cnc3cc(-c4c(C)noc4C)ccc23)cc1
Second: Cc1noc(C)c1-c1ccc(C(=C2CCCCCCC2)c2ccc(O)cc2)cc1
The XC50 of the first is 5.4-fold lower: 195 nM for the first, 1050 nM for the second.

`O=S(=O)(Nc1cccc(CCN2CCC(N3CCCCC3)CC2)c1)c1cccc2ccccc12` and `O=C(Nc1cccc(CN2CCCN(Cc3ccc(O)cc3)CC2)c1)c1cccc(F)c1` are within 1.5-fold of each other in XC50: 937 nM for the first, 896 nM for the second.

`N=c1n(Cc2ccc(Cl)cc2)c2ccccc2n1CC(O)c1ccc(Cl)c(Cl)c1` (stereo unspecified) and `Cc1cc(C(=O)CN2C(=O)NC(C)(c3ccc4ccccc4c3)C2=O)c(C)n1Cc1ccco1` (stereo unspecified) are within 1.5-fold of each other in XC50: 677 nM for the first, 661 nM for the second.

Going from `CCCN(CCC)C(=O)c1cc(C(=O)N[C@@H](Cc2ccccc2)[C@H](O)CNC2CC2)cc(N2CCCCS2(=O)=O)c1` to `CC(C)(C(=O)Nc1ccc(N2CCC3(CCCN(CC4CC4)C3)CC2)c(Cl)c1)c1cccc(C(F)(F)F)c1`, the XC50 rises from 156 nM to 2000 nM (13-fold).

Going from `CC(C)C[C@@H](NC(=O)OC(C)(C)C)C(=O)Nc1ccc(Cc2ccc(NC(=O)[C@@H](CC(C)C)NC(=O)OC(C)(C)C)cc2)cc1` to `COCCOC(=O)C(=O)c1c(-c2ccccc2)c(-c2ccc(OC)c(OC)c2)c2c3cc(OC)c(OC)cc3ccn12`, the XC50 rises from 207 nM to 497 nM (2.4-fold).

First: CCC(C)(C)n1c(C)cc2c3c(N)nc(N)nc3ccc21
Second: COc1ccc(CNc2nc(NCCc3ccccc3)c3cc(OC)c(OC)cc3n2)cc1OC
The XC50 of the first is 56-fold lower: 3.2 nM for the first, 180 nM for the second.

First: Cc1ccccc1-c1nc2c(CN3CCC(O)(c4ccccc4)CC3)c(O)ccc2[nH]1
Second: c1ccc2c(c1)CN(Cc1cc3ccccc3[nH]1)CC1(CCN(Cc3c[nH]c4cnccc34)CC1)O2
The XC50 of the first is 2.8-fold higher: 866 nM for the first, 306 nM for the second.

`Cc1cc(=NN=Cc2ccc(F)cc2)c2ccc(C(F)(F)F)cc2[nH]1` and `CCn1c(-c2nonc2N)nc2c(-c3cccc(NC(=O)Nc4ccccc4Cl)c3)ncc(OCCCN)c21` are within 1.5-fold of each other in XC50: 816 nM for the first, 671 nM for the second.

Compared with `N[C@@H](Cc1cc(I)c(Oc2ccc(O)c(Cl)c2)c(I)c1)C(=O)O`, `NC12CC3CC(CC(C3)C1)C2` [AMANTADINE] is 6.1-fold lower in XC50: 993 nM for the first, 164 nM for the second.
